Assay results: US12306194B2, “Reagent for fluorescence imaging of lipid droplets in cell and tissue” (NATIONAL UNIVERSITY CORPORATION GUNMA UNIVERSITY, priority 2019, dated 2025)

Assays:
[1] = test system: lipid droplets in HeLa cells; assay: Fluorescence imaging of lipid droplets in oleic acid-treated HeLa cells; type: cell-based
Text: Since LipiDye requires use of an excitation wavelength of about 405 nm, there is a concern about phototoxicity to cells in cases of long observation.

[2] = test system: 3T3-L1 cells (adipocytes); assay: Intracellular retention property in 3T3-L1 cells; type: cell-based
Protocol: (§1) Using a fluorescence microscope (IX71, manufactured by Olympus Corporation), fluorescence imaging images of cells were acquired over time, and the photostability (It/I0) and the retention property were measured.
For evaluation of the intracellular retention property of each reagent, each fluorescent reagent was added to 3T3-L1 cells (adipocytes) to a final concentration of 100 nM (for Lipi-Green, 500 nM), and imaging images were acquired after 30 minutes of culture and 24 hours after washing away of the reagent.

[3] = test system: 3T3-L1 cells (adipocytes); assay: Intracellular photostability under excitation light in 3T3-L1 cells; type: cell-based; conditions: summary grade, Table 3
Protocol: as §1
The photostability and the retention property are important factors in long-term measurement for, for example, tracing the processes of formation, fusion, and degradation of lipid droplets. Each fluorescent reagent was added to 3T3-L1 cells (adipocytes) to a final concentration of 100 nM, and the cells were cultured for 30 minutes. After washing the cells, the cells were irradiated with an excitation light required for imaging (450 to 500 nm; for LipiDye, an excitation wavelength of 400 to 440 nm), to evaluate the photostability. By regarding the time immediately after the irradiation as Second 0, imaging images were acquired at 20-second intervals for analysis of the image intensity.

[4] = Measurement of fluorescence lifetime in solvents; type: physicochemical
Protocol: The fluorescence lifetime (τf) of each compound in each solvent was measured using a compact fluorescence lifetime measurement apparatus (Quntaurus-Tau, manufactured by Hamamatsu Photonics K.K.).

[5] = Measurement of maximum absorption wavelength, maximum fluorescence wavelength and fluorescence quantum yield in solvents; type: physicochemical
Protocol: Using a luminescent quantum yield measurement apparatus ([…]-01, manufactured by Hamamatsu Photonics K.K.), the maximum absorption wavelength (λabs/nm), the maximum fluorescence wavelength (λflu/nm), and the fluorescence quantum yield (Φf) of the compound in each solvent were measured. The absorption spectrum was measured using an ultraviolet and visible spectrophotometer (Ubest-550, manufactured by JASCO Corporation), and the fluorescence emission spectrum was measured using a fluorescence spectrophotometer (F-7000, manufactured by Hitachi, Ltd.)

[6] = 100 nM (Lipi-Green 500 nM), 3T3-L1 cells, 24 hours after washing away of the reagent

SMILES | Photostability [3] | τf (fluorescence lifetime) ([4]; in Bu2O (dibutyl ether)) [ns] | τf (fluorescence lifetime) ([4]; in MeCN) [ns] | Φf (fluorescence quantum yield) ([5]; in Bu2O (dibutyl ether)) | λmax abs (maximum absorption wavelength) ([5]; in Bu2O (dibutyl ether)) [nm] | λmax flu (maximum fluorescence wavelength) ([5]; in Bu2O (dibutyl ether)) [nm] | Φf (fluorescence quantum yield) ([5]; in MeCN) | λmax abs (maximum absorption wavelength) ([5]; in MeCN) [nm] | λmax flu (maximum fluorescence wavelength) ([5]; in MeCN) [nm] | Brightness in cells ([1]; summary grade, Table 3) | Selectivity for lipid droplets ([1]; summary grade, Table 3) | intracellular retention property [2, 6] | imaging of lipid droplets / lipid droplet selectivity in HeLa cells ([1]; 100 nM reagent, 30 minutes, 400 μM oleic acid 48 hours) | fluorescence intensity of HeLa cells ([1]; 100 nM reagent, 30 minutes, compared with BODIPY493/503 or Lipi Green) | intracellular retention property ([2]; summary grade, Table 3)
CC1=CC(C)=[N+]2C1=C(C)c1c(C)cc(C)n1[B-]2(F)F [BODIPY493/503] |  |  |  |  |  |  |  |  |  | Δ | ◯ | remarkable decreases in the fluorescence intensity |  |  | 
CCN(CC)c1ccc2cc3cc(-c4nc5ccccc5[nH]4)c(=O)oc3cc2c1 [PC6NH, 3-(1H-Benzo[d]imidazol-2-yl)-8-(diethylamino)-2H-benzo[g]chromen-2-one] |  | 2.79 | 3.78 | 0.89 | 458 | 523 | 0.82 | 477 | 604 |  |  |  |  |  | 
CCN(CC)c1ccc2cc3cc(-c4nc5ccccc5n4C)c(=O)oc3cc2c1 [PC6NMe, 8-(Diethylamino)-3-(1-methyl-1H-benzo[d]imidazol-2-yl)-2H-benzo[g]chromen-2-one] |  | 3.53 | 4.08 | 0.67 | 438 | 512 | 0.77 | 449 | 590 |  |  |  |  |  | 

The next lines start with results.

Photostability [3] | τf (fluorescence lifetime) ([4]; in Bu2O (dibutyl ether)) [ns] | τf (fluorescence lifetime) ([4]; in MeCN) [ns] | Φf (fluorescence quantum yield) ([5]; in Bu2O (dibutyl ether)) | λmax abs (maximum absorption wavelength) ([5]; in Bu2O (dibutyl ether)) [nm] | λmax flu (maximum fluorescence wavelength) ([5]; in Bu2O (dibutyl ether)) [nm] | Φf (fluorescence quantum yield) ([5]; in MeCN) | λmax abs (maximum absorption wavelength) ([5]; in MeCN) [nm] | λmax flu (maximum fluorescence wavelength) ([5]; in MeCN) [nm] | SMILES | Brightness in cells ([1]; summary grade, Table 3) | Selectivity for lipid droplets ([1]; summary grade, Table 3) | intracellular retention property [2, 6] | imaging of lipid droplets / lipid droplet selectivity in HeLa cells ([1]; 100 nM reagent, 30 minutes, 400 μM oleic acid 48 hours) | fluorescence intensity of HeLa cells ([1]; 100 nM reagent, 30 minutes, compared with BODIPY493/503 or Lipi Green) | intracellular retention property ([2]; summary grade, Table 3)
Δ |  |  |  |  |  |  |  |  | CCN(CC)c1ccc2nc3c4ccccc4c(=O)cc-3oc2c1 [Nile Red] | ◯ |  | remarkable decreases in the fluorescence intensity | low lipid droplet selectivity | higher fluorescence intensities | Δ
 | 2.83 | 3.70 | 0.86 | 460 | 530 | 0.80 | 478 | 613 | CCN(CC)c1ccc2cc3cc(-c4nc5ccccc5o4)c(=O)oc3cc2c1 [PC6O, 3-(Benzo[d]oxazol-2-yl)-8-(diethylamino)-2H-benzo[g]chromen-2-one] |  |  |  |  |  | 
